The target in series [1] is T1, hMOR (Homo sapiens, UniProt P35372). The series is described as follows: cell-based. Also on record: expressed in transfected cells.
Series [2] addresses hDOR (Homo sapiens, UniProt P41143). Put plainly: Radioligand binding assay (Eurofins Cerep), [3H]DADLE displacement. The settings on record: read-out: DOR Ki ± SEM.
Series [3] concerns the target T1, hMOR. The series is described as follows: Radioligand binding assay (Eurofins Cerep), [3H]DAMGO displacement.
In series [4] the target is hKOR (Homo sapiens, UniProt P41145). Put plainly: Radioligand binding assay (Eurofins Cerep), [3H]U69,593 displacement. The conditions noted are these: read-out: KOR Ki ± SEM.
Series [5] in a line: Metabolic stability in rat liver microsomes. The settings on record: for Whole liver clearance, CL int, H: in vitro intrinsic clearance in RLM scaled to whole organ (rat); for RLM stability: rat liver microsomes 1 mg/ml, substrate 1 μM, NADPH, 37° C. Format: in vitro ADME. The method, then:
In vitro metabolic stability of each compound was determined using rat liver microsomes in triplicate. Verapamil was used as a positive control to check the activity of the microsomes. The incubation mixtures consisted of rat liver microsomes (1 mg microsomal protein/ml), substrate (1 μM), and reduced NADPH (1 mM) in a total volume of 0.4 ml potassium phosphate buffer (50 mM, pH 7.4). Reactions were initiated with the addition of NADPH and kept in an incubator shaker at 37° C. Aliquots of 25 μl were withdrawn at 0, 5, 10, 15, 30, and 60 min and mixed with 125 μl of acetonitrile with formic acid (0.1% v/v) containing phenacetin (50 ng/ml; internal standard) for the termination of the reaction. The samples were then vortex mixed and filtered through a […] 96-well membrane filtration plate under centrifugation at speed of 2000×g for 5 min at 4° C. The filtrates were subjected to UPLC-mass spectrometry (MS/MS) analysis.
The intrinsic clearance of the compounds was calculated using a half-life employing the ‘substrate depletion’ approach. The apparent half-life was calculated from the pseudo-first-order rate constants obtained by linear regression of log (concentration) and time plots. The in vitro intrinsic clearance of IFN was estimated using the formula: […]
Where k is the slope of the line obtained by plotting the natural logarithmic of the percentage of parent remaining versus time and V is the volume of incubation.
The in vitro intrinsic clearance was scaled to whole-organ (hepatic) in vivo intrinsic CL (CLint,H) using the scaling factors available in the literature using equation (Mahmood I. Application of allometric principles for the prediction of pharmacokinetics in human and veterinary drug development. Advanced drug delivery reviews, 2007, 59(11), 1177-1192)
MPPGL represents the microsomal protein per gram of Sprague Dawley rat liver (45 mg/g) and liver weight per kg body weight was 40 g/kg.

The target in series [6] is T2, α2A adrenergic receptor (Homo sapiens, UniProt P08913).
T2 construct: Eurofins Cerep (contract screening)
T2 sequence (P08913 1-465): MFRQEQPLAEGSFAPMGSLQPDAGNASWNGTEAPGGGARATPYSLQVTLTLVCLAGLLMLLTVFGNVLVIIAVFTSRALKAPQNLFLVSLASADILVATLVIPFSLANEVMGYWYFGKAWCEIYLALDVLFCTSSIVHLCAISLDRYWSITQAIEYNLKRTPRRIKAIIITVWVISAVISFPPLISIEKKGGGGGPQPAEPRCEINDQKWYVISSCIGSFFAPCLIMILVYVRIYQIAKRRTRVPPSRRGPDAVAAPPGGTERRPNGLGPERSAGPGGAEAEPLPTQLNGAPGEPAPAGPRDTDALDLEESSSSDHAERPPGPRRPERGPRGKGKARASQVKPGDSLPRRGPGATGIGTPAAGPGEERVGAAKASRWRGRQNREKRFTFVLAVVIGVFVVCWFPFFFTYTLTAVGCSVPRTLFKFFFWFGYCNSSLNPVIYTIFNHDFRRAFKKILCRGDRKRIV
The series is described as follows: Radioligand binding assay (Eurofins Cerep), [3H]RX 821002 displacement. The settings on record: read-out: Alpha2A Ki ± SEM.

Setting [7] is: Table A1, data summary #1, read-out: MOR Ki ± SEM.
Setting [8] is: Table A4, data summary #2, read-out: MOR Ki ± SEM.

Where two headings read alike, the source gives them in different places.

Sequence of hKOR (P41145 whole entry): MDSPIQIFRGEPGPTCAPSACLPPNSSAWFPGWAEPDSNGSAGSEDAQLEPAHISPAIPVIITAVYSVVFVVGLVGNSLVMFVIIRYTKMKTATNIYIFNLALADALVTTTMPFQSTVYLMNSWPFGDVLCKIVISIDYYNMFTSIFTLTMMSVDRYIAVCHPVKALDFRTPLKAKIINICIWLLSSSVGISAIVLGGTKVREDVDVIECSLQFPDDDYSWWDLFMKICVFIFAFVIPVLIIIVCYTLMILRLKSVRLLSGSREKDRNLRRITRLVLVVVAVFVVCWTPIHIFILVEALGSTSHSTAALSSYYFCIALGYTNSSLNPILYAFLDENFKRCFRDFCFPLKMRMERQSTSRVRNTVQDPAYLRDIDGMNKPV
T1 sequence (P35372 whole entry): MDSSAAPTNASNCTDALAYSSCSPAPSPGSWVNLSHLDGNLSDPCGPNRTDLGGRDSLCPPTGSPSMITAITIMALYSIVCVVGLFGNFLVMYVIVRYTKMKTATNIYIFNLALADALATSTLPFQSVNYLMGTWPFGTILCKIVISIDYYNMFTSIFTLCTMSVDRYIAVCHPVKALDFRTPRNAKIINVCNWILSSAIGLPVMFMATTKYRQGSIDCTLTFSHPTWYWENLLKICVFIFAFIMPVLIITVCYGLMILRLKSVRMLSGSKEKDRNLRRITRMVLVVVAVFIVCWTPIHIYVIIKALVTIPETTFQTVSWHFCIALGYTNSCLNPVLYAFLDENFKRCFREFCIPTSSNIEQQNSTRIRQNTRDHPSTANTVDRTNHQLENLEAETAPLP
Sequence of hDOR (P41143 whole entry): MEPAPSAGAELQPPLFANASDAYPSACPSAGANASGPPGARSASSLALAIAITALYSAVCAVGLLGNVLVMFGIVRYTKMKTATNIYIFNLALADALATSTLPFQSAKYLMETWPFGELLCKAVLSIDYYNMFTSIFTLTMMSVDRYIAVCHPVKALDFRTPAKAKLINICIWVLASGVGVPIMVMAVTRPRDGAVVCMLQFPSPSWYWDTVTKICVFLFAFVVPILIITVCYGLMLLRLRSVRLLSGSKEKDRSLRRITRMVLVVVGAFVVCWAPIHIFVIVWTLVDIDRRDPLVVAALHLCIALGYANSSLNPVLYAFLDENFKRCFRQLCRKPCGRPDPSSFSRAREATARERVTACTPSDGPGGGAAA

With `C[C@@H](NC(=O)[C@@H](N)Cc1ccc(O)cc1)C(=O)NCC(=O)N(C)[C@@H](Cc1ccccc1)C(=O)NCCO` [DAMGO, reference compound], the Emax in series [1] (CHO, read-out: MOR Emax ± SEM (%)) amounted to 106 ± 2%.
As to `CC[C@@H]1CN2CC[C@]3(Nc4cccc(OC)c4C3=O)[C@@H]2C[C@@H]1/C(=C\OC)C(=O)OC` [Mitragynine pseudoindoxyl, reference compound], the Ki in series [2] (Table A1, data summary #1) stood at 2.93 nM; in series [3] (setting [7]), 1.3 nM; in series [4] (Table A1, data summary #1) it was 150 nM. The “MOR Emax ± SEM (% DAMGO)” value in series [1] (Table A1, data summary #1) amounted to 42.4 % DAMGO.
Turning to `CC[C@@H]1CN2CCc3c([nH]c4cccc(OC)c34)[C@@H]2C[C@@H]1/C(=C\OC)C(=O)N1CCCC1` [SUSM-507, (E)-2-((2S,3S,12bS)-3-ethyl-8-methoxy-1,2,3,4,6,7,12,12b-octahydroindolo[2,3-a]quinolizin-2-yl)-3-methoxy-1-(pyrrolidin-1-yl)prop-2-en-1-one], the “Whole liver clearance, CL int, H” value in series [5] turned out to be 833.8 mL/min/kg. In series [5], the “RLM stability” value is under 5 min. In addition, the Ki in series [2] (Table A1, data summary #1) was over 10000 nM; in series [2] (Table A4, data summary #2), 6260 ± 3170 nM; in series [6] (Table A1, data summary #1) it was 9850 ± 1570 nM; in series [6] (Table A4, data summary #2), 4990 ± 1020 nM; in series [3] (setting [7]), 655 ± 76.6 nM; in series [3] (setting [8]) it was 655 ± 76.6 nM. Besides, the Ki was over 10000 nM in series [4] (Table A1, data summary #1) and over 10000 nM in series [4] (Table A4, data summary #2).
Turning to `CC[C@@H]1CN2CCc3c([nH]c4cccc(OC)c34)[C@@H]2C[C@@H]1/C(=C\OC)C(=O)N(CC)CC` [SUSM-509, (E)-N,N-diethyl-2-((2S,3S,12bS)-3-ethyl-8-methoxy-1,2,3,4,6,7,12,12b-octahydroindolo[2,3-a]quinolizin-2-yl)-3-methoxyacrylamide], the “RLM stability” value in series [5] is given as under 5 min. Besides, the Ki in series [2] (Table A1, data summary #1) was over 10000 nM; in series [2] (Table A4, data summary #2) it was over 10000 nM; in series [6] (Table A1, data summary #1), 5200 ± 621 nM; in series [6] (Table A4, data summary #2) it was 2730 ± 488 nM; in series [3] (setting [7]), 1130 ± 73.8 nM; in series [3] (setting [8]), 1130 ± 73.8 nM. Besides, the Ki in series [4] (Table A1, data summary #1) is over 10000 nM; in series [4] (Table A4, data summary #2), over 10000 nM.
As for `CC[C@@H]1CN2CCc3c([nH]c4cccc(OC)c34)[C@@H]2C[C@@H]1/C(=C\OC)C(=O)N1CCCCC1` [SUSM-518, (E)-2-((2S,3S,12bS)-3-ethyl-8-methoxy-1,2,3,4,6,7,12,12b-octahydroindolo[2,3-OMea]quinolizin-2-yl)-3-methoxy-1-(piperidin-1-yl)prop-2-en-1-one], in series [5], the “RLM stability” value was under 5 min. Further, the Ki was over 10000 nM in series [2] (Table A1, data summary #1); over 10000 nM in series [2] (Table A4, data summary #2); 523 ± 155 nM in series [6] (Table A4, data summary #2); 244 ± 55 nM in series [3] (setting [8]); 129 nM in series [3] (read-out: Ki at hMOR); 7460 ± 1420 nM in series [4] (Table A1, data summary #1). For the same compound, the Ki in series [4] (Table A4, data summary #2) came out at 7460 ± 1420 nM.
As to `CC[C@@H]1CN2CCc3c([nH]c4cccc(OC)c34)[C@@H]2C[C@@H]1/C(=C\OC)C(=O)NC1CCCCC1` [SUSM-519, (E)-N-cyclohexyl-2-((2S,3S,12bS)-3-ethyl-8-methoxy-1,2,3,4,6,7,12,12b-octahydroindolo[2,3-a]quinolizin-2-yl)-3-methoxyacrylamide], the “Whole liver clearance, CL int, H” value in series [5] is 38.4 mL/min/kg. Further, the “RLM stability” value in series [5] is reported as 30 min. For the same compound, the Ki in series [2] (Table A1, data summary #1) is over 10000 nM; in series [2] (Table A4, data summary #2), over 10000 nM; in series [6] (Table A4, data summary #2), 933 ± 242 nM; in series [3] (setting [7]) it was 3590 ± 663 nM; in series [3] (setting [8]), 2180 ± 603 nM; in series [4] (Table A1, data summary #1), 2790 ± 640 nM. The inhibitory constant (Ki) in series [4] (Table A4, data summary #2) was 2790 ± 640 nM.
As for `CC[C@@H]1CN2CCc3c([nH]c4cccc(OC)c34)[C@@H]2C[C@@H]1/C(=C\OC)C(=O)N(C)CC` [SUSM-520, (E)-N-ethyl-2-((2S,3S,12bS)-3-ethyl-8-methoxy-1,2,3,4,6,7,12,12b-octahydroindolo[2,3-a]quinolizin-2-yl)-3-methoxy-N-methylacrylamide], the “Whole liver clearance, CL int, H” value in series [5] amounted to 879.7 mL/min/kg. For the same compound, in series [5], the “RLM stability” value is listed as under 5 min. The Ki was over 10000 nM in series [2] (Table A1, data summary #1); over 10000 nM in series [2] (Table A4, data summary #2); 938 ± 223 nM in series [6] (Table A4, data summary #2); 459 ± 40.7 nM in series [3] (setting [7]); 452 ± 33 nM in series [3] (setting [8]); 4780 ± 1140 nM in series [4] (Table A1, data summary #1). Moreover, the inhibition constant Ki in series [4] (Table A4, data summary #2) came to 4780 ± 1140 nM.
Take `CCCN(C)C(=O)/C(=C/OC)[C@H]1C[C@H]2c3[nH]c4cccc(OC)c4c3CCN2C[C@H]1CC` [SUSM-521, (E)-2-((2S,3S,12bS)-3-ethyl-8-methoxy-1,2,3,4,6,7,12,12b-octahydroindolo[2,3-a]quinolizin-2-yl)-3-methoxy-N-methyl-N-propylacrylamide]: the “RLM stability” value in series [5] is reported as under 5 min. Also, the Ki in series [2] (Table A1, data summary #1) worked out at 5890 ± 105 nM; in series [2] (Table A4, data summary #2) it was 4030 ± 797 nM; in series [6] (Table A4, data summary #2), 1510 ± 676 nM; in series [3] (setting [8]) it was 222 ± 33 nM; in series [3] (read-out: Ki at hMOR) it was 167 nM; in series [4] (Table A1, data summary #1) it was 2610 ± 588 nM. In addition, in series [4] (Table A4, data summary #2), the Ki turned out to be 2610 ± 588 nM.

(Values after patent publication US20260234147A1 (priority 2023, published 2026).)
